Species on record: Rattus norvegicus
Test: Rate of formation of compound by F-344 rat liver microsomes
Assay type: ADME

Question: How did the Rate turn out when `O=C(CCCO)c1cccnc1` was run?
Answer: 0.4 nmol/min/mg

Question: With `O=NN1CCCC1c1ccc[n+]([O-])c1` (stereo not given) as the molecule, how does the Rate read?
Answer: 0.57 nmol/min/mg

Question: `O=NN1CCC(O)C1c1cccnc1` (stereo not given) was tested. Which Rate did it give?
Answer: < 0.01 nmol/min/mg

Question: `O=NN1CC(O)CC1c1cccnc1` (stereo not given) was tested. Which Rate did it give?
Answer: < 0.01 nmol/min/mg

Question: With `OC1CCC(c2cccnc2)O1` (stereo not given) as the molecule, how does the Rate read?
Answer: 0.76 nmol/min/mg

— ChEMBL document CHEMBL1121596, “Metabolic beta-hydroxylation and N-oxidation of N'-nitrosonornicotine” (J Med Chem, 1980)
